Assay results reported in ChEMBL document CHEMBL1201862, “PubChem BioAssay data set” (2004).
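Interpolation was linear, between the two tested concentrations surrounding the appropriate level; five concentrations were tested over 48 hours in 96-well plates. GI50 = concentration required for 50% inhibition of growth.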 Calls of active or inactive are those of the source. Rule as the data show it: active = GI50 up to about 1.1 µM and inactive = higher.

Experiments:
Test in all cases: DTP human tumour cell line panel, 48 h
[1] = test system: NCI-H460
[2] = test system: SF-295
[3] = test system: SNB-19
[4] = test system: HT-29
[5] = test system: RPMI-8226
[6] = test system: HL-60
[7] = test system: SF-539
[8] = test system: A549
[9] = test system: KM12
[10] = test system: UO-31
[11] = test system: IGROV-1
[12] = test system: NCI-H23
[13] = test system: SK-OV-3
[14] = test system: RXF 393

With COc1ccc(/C=C/C(C(=O)O)C(=O)O)cc1 the GI50 [1] was > 100 µM (inactive), the GI50 [2] was > 100 µM (inactive) and the GI50 [3] was 70.5 µM (inactive). For the same molecule, the GI50 [4] was 78.9 µM (inactive), the GI50 [5] was 32.8 µM (inactive) and the GI50 [6] was 24.3 µM (inactive). The GI50 [7] was > 100 µM (inactive), the GI50 [8] was > 100 µM (inactive) and the GI50 [9] was 50.7 µM (inactive). The GI50 [10] was 64.3 µM (inactive), the GI50 [11] was > 100 µM (inactive) and the GI50 [12] was > 100 µM (inactive). The GI50 [13] was > 100 µM (inactive).

O=C(Nc1cccc(O)c1)C(=O)C(C(=O)c1ccc(Cl)c(Cl)c1)C1OC(=O)c2ccccc21 (stereo not drawn) was tested, and the GI50 [1] was 13.2 µM (inactive), the GI50 [2] was 20.3 µM (inactive) and the GI50 [3] was 13.3 µM (inactive). For the same molecule, the GI50 [4] was 27.4 µM (inactive), the GI50 [5] was 16 µM (inactive) and the GI50 [14] was 20.9 µM (inactive). The GI50 [6] was 12.9 µM (inactive), the GI50 [8] was 37 µM (inactive) and the GI50 [9] was 19.5 µM (inactive). For the same molecule, the GI50 [10] was 13.7 µM (inactive), the GI50 [11] was 22.2 µM (inactive) and the GI50 [12] was 16.6 µM (inactive). For the same molecule, the GI50 [13] was 12.8 µM (inactive).

For Cc1ccc(S(=O)(=O)OC(C=O)C(O)C(O)COC(c2ccccc2)(c2ccccc2)c2ccccc2)cc1 (stereo not drawn), the GI50 [1] was 14 µM (inactive), the GI50 [2] was 12.2 µM (inactive) and the GI50 [3] was 14.8 µM (inactive). The GI50 [4] was 12.2 µM (inactive), the GI50 [5] was 12.2 µM (inactive) and the GI50 [14] was 15.2 µM (inactive). The GI50 [7] was 16.3 µM (inactive), the GI50 [8] was 18.2 µM (inactive) and the GI50 [9] was 11.9 µM (inactive). For the same molecule, the GI50 [10] was 16.8 µM (inactive), the GI50 [11] was 15.1 µM (inactive) and the GI50 [13] was 15 µM (inactive).

With C[Si]12OCCCN(CCO1)CCO2 the GI50 [1] was > 100 µM (inactive), the GI50 [2] was > 100 µM (inactive) and the GI50 [3] was > 100 µM (inactive). For the same molecule, the GI50 [4] was > 100 µM (inactive), the GI50 [5] was > 100 µM (inactive) and the GI50 [14] was > 100 µM (inactive). For the same molecule, the GI50 [7] was > 100 µM (inactive), the GI50 [8] was > 100 µM (inactive) and the GI50 [9] was > 100 µM (inactive). The GI50 [10] was > 100 µM (inactive), the GI50 [11] was > 100 µM (inactive) and the GI50 [12] was > 100 µM (inactive). For the same molecule, the GI50 [13] was > 100 µM (inactive).

With Cc1ccc(NC(=O)CC(=O)n2nc(-c3ccccc3)c(/N=N/c3ccc(Cl)cc3)c2-c2ccccc2)cc1 the GI50 [1] was 40.3 µM (inactive), the GI50 [2] was 58.9 µM (inactive) and the GI50 [3] was 42.6 µM (inactive). For the same molecule, the GI50 [4] was 17.9 µM (inactive), the GI50 [5] was 23.3 µM (inactive) and the GI50 [6] was 0.221 µM (active). The GI50 [7] was 28.8 µM (inactive), the GI50 [8] was 28.2 µM (inactive) and the GI50 [9] was 36.5 µM (inactive). The GI50 [10] was > 100 µM (inactive), the GI50 [11] was 57.7 µM (inactive) and the GI50 [12] was 58.1 µM (inactive). The GI50 [13] was 27.5 µM (inactive).

In the case of Oc1cccc2c1NC1=C(CCC/C1=C\c1ccccc1)C2, the GI50 [1] is reported as 57.1 µM (inactive), the GI50 [2] is reported as 71.8 µM (inactive) and the GI50 [3] is reported as > 100 µM (inactive). For the same molecule, the GI50 [4] was 49.8 µM (inactive), the GI50 [5] was 52 µM (inactive) and the GI50 [6] was 40.1 µM (inactive). The GI50 [7] was 20.6 µM (inactive), the GI50 [8] was > 100 µM (inactive) and the GI50 [9] was > 100 µM (inactive). For the same molecule, the GI50 [10] was 51.2 µM (inactive), the GI50 [11] was > 100 µM (inactive) and the GI50 [12] was 58.2 µM (inactive). The GI50 [13] was > 100 µM (inactive).

For Cc1cccc(C2=C/C(=C(\SS/C(C(=O)c3ccc(OCC(=O)O)c(Cl)c3Cl)=C3\C=C(c4cccc(C)c4)SS3)C(=O)c3ccc(OCC(=O)O)c(Cl)c3Cl)SS2)c1, the GI50 [1] was 27.2 µM (inactive), the GI50 [2] was 24.5 µM (inactive) and the GI50 [3] was 10.9 µM (inactive). The GI50 [4] was 27.7 µM (inactive), the GI50 [5] was 16.9 µM (inactive) and the GI50 [6] was 1.85 µM (inactive). For the same molecule, the GI50 [7] was 12.4 µM (inactive), the GI50 [8] was 28.8 µM (inactive) and the GI50 [9] was 23.3 µM (inactive). The GI50 [10] was 13 µM (inactive), the GI50 [11] was 12.1 µM (inactive) and the GI50 [12] was 12.1 µM (inactive). For the same molecule, the GI50 [13] was 36.6 µM (inactive).

Cc1cccc(C)c1NC(=O)CCCC(=O)C(C#N)c1ccc(Cl)cc1 (stereo not drawn) was tested, and the GI50 [1] was > 100 µM (inactive), the GI50 [2] was > 100 µM (inactive) and the GI50 [3] was > 100 µM (inactive). For the same molecule, the GI50 [4] was > 100 µM (inactive), the GI50 [5] was > 100 µM (inactive) and the GI50 [6] was > 100 µM (inactive). For the same molecule, the GI50 [7] was > 100 µM (inactive), the GI50 [8] was > 100 µM (inactive) and the GI50 [9] was > 100 µM (inactive). For the same molecule, the GI50 [10] was > 100 µM (inactive), the GI50 [11] was > 100 µM (inactive) and the GI50 [12] was > 100 µM (inactive). The GI50 [13] was > 100 µM (inactive).
